{"source": "PubChem BioAssay AID298", "about": "(DTP/NCI, 2004)", "system": "MX-1 breast xenograft, intrarenal, nude mice, tumor weight", "test": "NCI In Vivo Anticancer Drug Screen. Data for tumor model Human Mammary Carcinoma MX-1 Xenograft (intrarenal inoculation) in NU/NU BALB/C (nude) mice", "conditions": "endpoint: mean tumor weight change, higher = larger tumour", "in_short": "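Antitumor activity is expressed as a T/C ratio. The treated group's tumor size or survival is compared against the vehicle-treated control group in mice bearing transplanted tumors.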", "key": {"[1]": {"conditions": "dose: 25.0 mg/kg/injection, schedule: Q01DX010 (sc), vehicle: Klucel (hydroxypropylcellulose) (HPC)"}}, "note": "“And” between values parts separate entries of the source, which are not always exact repeats. Equal entries are not always repeated. Results filed as inconclusive are left out."}
{"smiles": "COC(=O)CC(N)C(=O)O", "note": "(stereo not given)", "values": [{"measurement": "T/C", "setting": "dose: 300.0 mg/kg/injection, schedule: Q04DX003 (sc), vehicle: saline with Tween-80", "result": "78 % of control"}, {"measurement": "T/C", "setting": "dose: 600.0 mg/kg/injection, schedule: Q04DX003 (sc), vehicle: saline with Tween-80", "result": "121 % of control"}, {"measurement": "T/C", "setting": "dose: 1200.0 mg/kg/injection, schedule: Q04DX003 (sc), vehicle: saline with Tween-80", "result": "99 % of control"}, {"measurement": "T/C", "setting": "dose: 2400.0 mg/kg/injection, schedule: Q04DX003 (sc), vehicle: saline with Tween-80", "result": "101 % of control"}]}
{"smiles": "Clc1ccccc1C(Nc1cnccn1)Nc1cnccn1", "values": [{"measurement": "T/C", "setting": "dose: 300.0 mg/kg/injection, schedule: Q04DX003 (ip), vehicle: saline with Tween-80", "result": "70 % of control and 89 % of control"}]}
{"smiles": "O=c1n(CC2CO2)c(=O)n(CC2CO2)c(=O)n1CC1CO1", "note": "(stereo not given)", "values": [{"measurement": "T/C", "setting": "dose: 25.0 mg/kg/injection, schedule: Q01DX010 (sc), vehicle: saline", "result": "37 % of control"}, {"measurement": "T/C", "setting": "dose: 25.0 mg/kg/injection, schedule: Q04DX003 (sc), vehicle: suspension in saline", "result": "18 % of control"}, {"measurement": "T/C", "setting": "dose: 50.0 mg/kg/injection, schedule: Q04DX003 (sc), vehicle: suspension in saline", "result": "-100 % of control"}]}
{"smiles": "CN1C2C=CC(=O)C1C1C(=O)N(c3ccccc3)C(=O)C12", "note": "(stereo not given)", "values": [{"measurement": "T/C", "setting": "dose: 100.0 mg/kg/injection, schedule: Q04DX003 (ip), vehicle: Klucel (hydroxypropylcellulose) (HPC)", "result": "105 % of control"}, {"measurement": "T/C", "setting": "dose: 200.0 mg/kg/injection, schedule: Q04DX003 (ip), vehicle: Klucel (hydroxypropylcellulose) (HPC)", "result": "77 % of control"}]}
{"smiles": "O=C(CCCN1CCC(O)(c2cccc(C(F)(F)F)c2)CC1)c1ccc(F)cc1", "values": [{"measurement": "T/C", "setting": "[1]", "result": "33 % of control"}]}
{"smiles": "CC(=O)OCN(C)C=O", "values": [{"measurement": "T/C", "setting": "dose: 300.0 mg/kg/injection, schedule: Q01DX010 (ip), vehicle: suspension in saline", "result": "105 % of control"}, {"measurement": "T/C", "setting": "dose: 600.0 mg/kg/injection, schedule: Q01DX010 (ip), vehicle: suspension in saline", "result": "75 % of control"}, {"measurement": "T/C", "setting": "dose: 600.0 mg/kg/injection, schedule: Q01DX010 (sc), vehicle: saline", "result": "88 % of control"}, {"measurement": "T/C", "setting": "dose: 1200.0 mg/kg/injection, schedule: Q01DX010 (sc), vehicle: saline", "result": "104 % of control"}, {"measurement": "T/C", "setting": "dose: 2400.0 mg/kg/injection, schedule: Q01DX010 (sc), vehicle: saline", "result": "78 % of control"}]}
{"smiles": "NC(N)=NOCC[C@@H](N)C(=O)O", "values": [{"measurement": "T/C", "setting": "dose: 300.0 mg/kg/injection, schedule: Q04DX003 (sc), vehicle: saline", "result": "87 % of control"}, {"measurement": "T/C", "setting": "dose: 600.0 mg/kg/injection, schedule: Q04DX003 (sc), vehicle: saline", "result": "111 % of control"}, {"measurement": "T/C", "setting": "dose: 1200.0 mg/kg/injection, schedule: Q04DX003 (sc), vehicle: saline", "result": "86 % of control"}, {"measurement": "T/C", "setting": "dose: 2400.0 mg/kg/injection, schedule: Q04DX003 (sc), vehicle: saline", "result": "77 % of control"}]}
{"smiles": "CCOC(=O)Nc1cc(NC(C)/C(=N/O)c2ccccc2)c([N+](=O)[O-])c(N)n1", "note": "(stereo not given)", "values": [{"measurement": "T/C", "setting": "dose: 18.75 mg/kg/injection, schedule: Q04DX003 (ip), vehicle: Klucel (hydroxypropylcellulose) (HPC)", "result": "84 % of control"}, {"measurement": "T/C", "setting": "dose: 37.5 mg/kg/injection, schedule: Q04DX003 (ip), vehicle: Klucel (hydroxypropylcellulose) (HPC)", "result": "60 % of control"}, {"measurement": "T/C", "setting": "dose: 75.0 mg/kg/injection, schedule: Q04DX003 (ip), vehicle: Klucel (hydroxypropylcellulose) (HPC)", "result": "72 % of control"}]}
{"smiles": "O=C(NC(Cc1ccc(I)cc1)C(=O)O)c1cccc(Br)c1", "note": "(stereo not given)", "values": [{"measurement": "T/C", "setting": "dose: 150.0 mg/kg/injection, schedule: Q04DX003 (ip), vehicle: Klucel (hydroxypropylcellulose) (HPC)", "result": "57 % of control"}, {"measurement": "T/C", "setting": "dose: 300.0 mg/kg/injection, schedule: Q04DX003 (ip), vehicle: Klucel (hydroxypropylcellulose) (HPC)", "result": "72 % of control"}, {"measurement": "T/C", "setting": "dose: 600.0 mg/kg/injection, schedule: Q04DX003 (ip), vehicle: Klucel (hydroxypropylcellulose) (HPC)", "result": "76 % of control"}]}
{"smiles": "CNc1nc(NC)nc(NC)n1", "values": [{"measurement": "T/C", "setting": "dose: 12.5 mg/kg/injection, schedule: Q01DX010 (sc), vehicle: Klucel (hydroxypropylcellulose) (HPC)", "result": "156 % of control"}, {"measurement": "T/C", "setting": "[1]", "result": "152 % of control"}, {"measurement": "T/C", "setting": "dose: 50.0 mg/kg/injection, schedule: Q01DX010 (sc), vehicle: Klucel (hydroxypropylcellulose) (HPC)", "result": "122 % of control"}, {"measurement": "T/C", "setting": "dose: 100.0 mg/kg/injection, schedule: Q01DX010 (sc), vehicle: Klucel (hydroxypropylcellulose) (HPC)", "result": "83 % of control"}]}
{"smiles": "O=NNc1ccc2cccnc2n1", "values": [{"measurement": "T/C", "setting": "dose: 37.5 mg/kg/injection, schedule: Q04DX003 (ip), vehicle: other", "result": "6 % of control"}, {"measurement": "T/C", "setting": "dose: 37.5 mg/kg/injection, schedule: Q04DX003 (ip), vehicle: water", "result": "63 % of control"}, {"measurement": "T/C", "setting": "dose: 75.0 mg/kg/injection, schedule: Q04DX003 (ip), vehicle: other", "result": "-45 % of control"}, {"measurement": "T/C", "setting": "dose: 75.0 mg/kg/injection, schedule: Q04DX003 (ip), vehicle: water", "result": "17 % of control"}, {"measurement": "T/C", "setting": "dose: 150.0 mg/kg/injection, schedule: Q04DX003 (ip), vehicle: water", "result": "9 % of control"}]}
